Laboratory results: publication PMC5788402, “Impact of Target Warhead and Linkage Vector on Inducing Protein Degradation: Comparison of Bromodomain and Extra-Terminal (BET) Degraders Derived from Triazolodiazepine (JQ1) and Tetrahydroquinoline (I-BET726) BET Inhibitor Scaffolds” (Journal of Medicinal Chemistry, 2017)

Assays:
[1] = target: VCB / Brd4^BD2 ternary complex (Homo sapiens, UniProt O60885+P40337); experiment: ITC ternary titration, VCB into Brd4^BD2–PROTAC complex; format: binding; conditions: for α: cooperativity, ratio between binary and ternary Kd; for α / ΔpKd ± uncertainty: Brd4^BD2; for cooperativity (α) Brd4–BD2: ternary complex formation with VCB and Brd4^BD2, as tabulated in Table 2; for ΔpKd ± uncertainty: ternary vs binary; for stoichiometry N / ΔG / ΔH / –TΔS: ternary, VCB in syringe, Brd4^BD2–PROTAC in cell
[2] = test system: BET proteins Brd2, Brd3, Brd4; experiment: BET degradation profile in HeLa cells; format: cell-based; conditions: 24 h
[3] = target: Brd4^BD2 (Homo sapiens, UniProt O60885); experiment: ITC binary titration, Brd4^BD2 into PROTAC; format: binding; conditions: Brd4^BD2 in syringe, PROTAC in cell
[4] = target: VHL-EloC-EloB protein (VCB) (Homo sapiens, UniProt P40337); experiment: ITC binary titration, VCB into PROTAC; format: binding; conditions: VCB in syringe, PROTAC in cell

α [1]	cooperativity (α) Brd4–BD2 [1]	ΔpKd ± uncertainty [1]	stoichiometry N [1]	ΔG [1]	ΔH [1]	–TΔS [1]	stoichiometry N [3]	ΔG [3]	ΔH [3]	–TΔS [3]	stoichiometry N [4]	ΔG [4]	ΔH [4]	–TΔS [4]	SMILES	concentration with increased levels of BET proteins (hook effect) [2] [µM]
0.5	0.46	–0.34 ± 0.12	1.44 ± 0.02	–9.06 ± 0.09 kcal·mol^–1	–6.90 ± 0.11 kcal·mol^–1	–2.16 ± 0.14 kcal·mol^–1	1.15 ± 0.01	–11.5 ± 0.3 kcal·mol^–1	–9.74 ± 0.10 kcal·mol^–1	–1.73 ± 0.30 kcal·mol^–1	0.96 ± 0.01	–9.52 ± 0.13 kcal·mol^–1	–6.18 ± 0.12 kcal·mol^–1	–3.34 ± 0.18 kcal·mol^–1	CC(=O)N1c2ccc(-c3ccc(C(=O)NCCOCCOCCOCC(=O)N[C@H](C(=O)N4C[C@H](O)C[C@H]4C(=O)NCc4ccc(-c5scnc5C)cc4)C(C)(C)C)cc3)cc2[C@H](Nc2ccc(Cl)cc2)C[C@@H]1C [compound 9, (2S,4R)-1-((S)-1-(4-((2S,4R)-1-Acetyl-4-((4-chlorophenyl)amino)-2-methyl-1,2,3,4-tetrahydroquinolin-6-yl)phenyl)-15-(tert-butyl)-1,13-dioxo-5,8,11-trioxa-2,14-diazahexadecan-16-oyl)-4-hydroxy-N-(4-(4-methylthiazol-5-yl)benzyl)pyrrolidine-2-carboxamide]	1 to 10
5.7	5.7	0.78 ± 0.16	0.76 ± 0.06	–10.4 ± 0.2 kcal·mol^–1	–5.36 ± 0.77 kcal·mol^–1	–5.05 ± 0.62 kcal·mol^–1	0.81 ± 0.04	–10.6 ± 0.06 kcal·mol^–1	–11.2 ± 0.04 kcal·mol^–1		0.8 ± 0.05	–9.34 ± 0.10 kcal·mol^–1	–5.72 ± 0.47 kcal·mol^–1	–3.61 ± 0.37 kcal·mol^–1	Cc1ncsc1-c1ccc(CNC(=O)[C@@H]2C[C@@H](O)CN2C(=O)[C@@H](NC(=O)COCCOCCNC(=O)C[C@@H]2N=C(c3ccc(Cl)cc3)c3c(sc(C)c3C)-n3c(C)nnc32)C(C)(C)C)cc1 [compound 5, (2S,4R)-1-((S)-2-(tert-Butyl)-14-((S)-4-(4-chlorophenyl)-2,3,9-trimethyl-6H-thieno[3,2-f][1,2,4]triazolo[4,3-a][1,4]diazepin-6-yl)-4,13-dioxo-6,9-dioxa-3,12-diazatetradecanoyl)-4-hydroxy-N-(4-(4-methylthiazol-5-yl)benzyl)pyrrolidine-2-carboxamide]	
